pIC50: −log10 of the molar value. Each block holds one compound with its values, some of them ahead of it.
System: 422866-222-R5-J1-PDC complex spheroids viability
Assay: Anticancer human tumor 422866-222-R5-J1-PDC patient-derived pancreatic adenocarcinoma cell line growth inhibition [RAS]
Details: for pIC50: curve of first compound; for viability, T/C: stronger effect = lower value
Outline: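 Tumour cells grown as complex spheroids with HUVEC endothelial cells and mesenchymal stem cells, treated with RAS pathway inhibitor combinations. Each agent spans half-log steps from near clinical Cmax, or 10 microM where Cmax is unknown.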

[1] = second compound 0.000949 µM, first compound 0.000949 µM
[2] = second compound 0.000949 µM, first compound 0.003 µM
[3] = second compound 0.000949 µM, first compound 0.00949 µM
[4] = second compound 0.000949 µM, first compound 0.03 µM
[5] = second compound 0.000949 µM, first compound 0.0949 µM
[6] = second compound 0.000949 µM, first compound 0.3 µM
[7] = second compound 0.003 µM, first compound 0.000949 µM
[8] = second compound 0.003 µM, first compound 0.003 µM
[9] = second compound 0.003 µM, first compound 0.00949 µM
[10] = second compound 0.003 µM, first compound 0.03 µM
[11] = second compound 0.003 µM, first compound 0.0949 µM
[12] = second compound 0.003 µM, first compound 0.3 µM
[13] = second compound 0.00949 µM, first compound 0.000949 µM
[14] = second compound 0.00949 µM, first compound 0.003 µM
[15] = second compound 0.00949 µM, first compound 0.00949 µM
[16] = second compound 0.00949 µM, first compound 0.03 µM
[17] = second compound 0.00949 µM, first compound 0.0949 µM
[18] = second compound 0.00949 µM, first compound 0.3 µM
[19] = second compound 0.03 µM, first compound 0.000949 µM
[20] = second compound 0.03 µM, first compound 0.003 µM
[21] = second compound 0.03 µM, first compound 0.00949 µM
[22] = second compound 0.03 µM, first compound 0.03 µM
[23] = second compound 0.03 µM, first compound 0.0949 µM
[24] = second compound 0.03 µM, first compound 0.3 µM
[25] = second compound 0.0949 µM, first compound 0.000949 µM
[26] = second compound 0.0949 µM, first compound 0.003 µM
[27] = second compound 0.0949 µM, first compound 0.00949 µM
[28] = second compound 0.0949 µM, first compound 0.03 µM
[29] = second compound 0.0949 µM, first compound 0.0949 µM
[30] = second compound 0.0949 µM, first compound 0.3 µM
[31] = second compound 0.3 µM, first compound 0.000949 µM
[32] = second compound 0.3 µM, first compound 0.003 µM
[33] = second compound 0.3 µM, first compound 0.00949 µM
[34] = second compound 0.3 µM, first compound 0.03 µM
[35] = second compound 0.3 µM, first compound 0.0949 µM
[36] = second compound 0.3 µM, first compound 0.3 µM
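Further: spheroids exposed to compounds for 7 days.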
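Wherever viability, T/C is given: 100% = DMSO vehicle control viability.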

pIC50 (second compound 0.000949 µM): > 8.50
pIC50 (second compound 0.003 µM): > 8.50
pIC50 (second compound 0.00949 µM): > 8.50
pIC50 (second compound 0.03 µM): > 8.50
pIC50 (second compound 0.0949 µM): > 8.50
pIC50 (second compound 0.3 µM): > 8.50
Compound: C=CC(=O)N1CCN(c2nc(OCC3CCCN3C)nc3c(F)c(-c4nc(N)cc(C)c4C(F)(F)F)c(Cl)cc23)C(C)C1 (stereo unspecified) + CCn1c(-c2cccnc2C(C)OC)c2c3cc(ccc31)N1CCOC(CC(NC(=O)C(C(C)C)N(C)C(=O)C3(F)CCN(C(=O)C#CC(C)(C)N(C)C)CC3)C(=O)N3CCCC(N3)C(=O)OCC(C)(C)C2)C1
viability, T/C (second compound 0.000949 µM, first compound 0.00316 µM): 24.9%
viability, T/C (second compound 0.000949 µM, first compound 0.01 µM): 25.5%
viability, T/C (second compound 0.000949 µM, first compound 0.0316 µM): 23.4%
viability, T/C (second compound 0.000949 µM, first compound 0.1 µM): 23.8%
viability, T/C (second compound 0.000949 µM, first compound 0.316 µM): 21.1%
viability, T/C (second compound 0.000949 µM, first compound 1 µM): 22.7%
viability, T/C (second compound 0.003 µM, first compound 0.00316 µM): 24.1%
viability, T/C (second compound 0.003 µM, first compound 0.01 µM): 25.6%
viability, T/C (second compound 0.003 µM, first compound 0.0316 µM): 21.5%
viability, T/C (second compound 0.003 µM, first compound 0.1 µM): 22.8%
viability, T/C (second compound 0.003 µM, first compound 0.316 µM): 21.1%
viability, T/C (second compound 0.003 µM, first compound 1 µM): 24%
viability, T/C (second compound 0.00949 µM, first compound 0.00316 µM): 22.8%
viability, T/C (second compound 0.00949 µM, first compound 0.01 µM): 24.2%
viability, T/C (second compound 0.00949 µM, first compound 0.0316 µM): 23.3%
viability, T/C (second compound 0.00949 µM, first compound 0.1 µM): 20.6%
viability, T/C (second compound 0.00949 µM, first compound 0.316 µM): 21.6%
viability, T/C (second compound 0.00949 µM, first compound 1 µM): 22.1%
viability, T/C (second compound 0.03 µM, first compound 0.00316 µM): 21.2%
viability, T/C (second compound 0.03 µM, first compound 0.01 µM): 23.9%
viability, T/C (second compound 0.03 µM, first compound 0.0316 µM): 17.8%
viability, T/C (second compound 0.03 µM, first compound 0.1 µM): 18.9%
viability, T/C (second compound 0.03 µM, first compound 0.316 µM): 21.1%
viability, T/C (second compound 0.03 µM, first compound 1 µM): 22.4%
viability, T/C (second compound 0.0949 µM, first compound 0.00316 µM): 21.4%
viability, T/C (second compound 0.0949 µM, first compound 0.01 µM): 19.8%
viability, T/C (second compound 0.0949 µM, first compound 0.0316 µM): 20.1%
viability, T/C (second compound 0.0949 µM, first compound 0.1 µM): 20.2%
viability, T/C (second compound 0.0949 µM, first compound 0.316 µM): 19.7%
viability, T/C (second compound 0.0949 µM, first compound 1 µM): 21.3%
viability, T/C (second compound 0.3 µM, first compound 0.00316 µM): 18%
viability, T/C (second compound 0.3 µM, first compound 0.01 µM): 18%
viability, T/C (second compound 0.3 µM, first compound 0.0316 µM): 20.5%
viability, T/C (second compound 0.3 µM, first compound 0.1 µM): 19.6%
viability, T/C (second compound 0.3 µM, first compound 0.316 µM): 16.5%
viability, T/C (second compound 0.3 µM, first compound 1 µM): 20%

pIC50 (second compound 0.000949 µM): > 9.02
pIC50 (second compound 0.003 µM): > 9.02
pIC50 (second compound 0.00949 µM): > 9.02
pIC50 (second compound 0.03 µM): > 9.02
pIC50 (second compound 0.0949 µM): > 9.02
pIC50 (second compound 0.3 µM): > 9.02
Compound: CC1(C)CCC(Nc2ncc(C(F)(F)F)c(-c3c[nH]c4c(P(C)(C)=O)c(C#N)ccc34)n2)CN1 (stereo unspecified) + CCn1c(-c2cccnc2C(C)OC)c2c3cc(ccc31)N1CCOC(CC(NC(=O)C(C(C)C)N(C)C(=O)C3(F)CCN(C(=O)C#CC(C)(C)N(C)C)CC3)C(=O)N3CCCC(N3)C(=O)OCC(C)(C)C2)C1
viability, T/C [1]: 27.9%
viability, T/C [2]: 27%
viability, T/C [3]: 30.9%
viability, T/C [4]: 31.1%
viability, T/C [5]: 31%
viability, T/C [6]: 32.6%
viability, T/C [7]: 25.2%
viability, T/C [8]: 27%
viability, T/C [9]: 27.6%
viability, T/C [10]: 24.8%
viability, T/C [11]: 28.6%
viability, T/C [12]: 26.9%
viability, T/C [13]: 24.1%
viability, T/C [14]: 24.4%
viability, T/C [15]: 26.1%
viability, T/C [16]: 26.2%
viability, T/C [17]: 26.1%
viability, T/C [18]: 27.2%
viability, T/C [19]: 24.2%
viability, T/C [20]: 25.8%
viability, T/C [21]: 24.2%
viability, T/C [22]: 26.3%
viability, T/C [23]: 28.2%
viability, T/C [24]: 28.5%
viability, T/C [25]: 20.1%
viability, T/C [26]: 22.7%
viability, T/C [27]: 25.4%
viability, T/C [28]: 23.6%
viability, T/C [29]: 26.7%
viability, T/C [30]: 25.6%
viability, T/C [31]: 20%
viability, T/C [32]: 22.8%
viability, T/C [33]: 24.2%
viability, T/C [34]: 24.8%
viability, T/C [35]: 28.1%
viability, T/C [36]: 24.6%

pIC50 (second compound 0.000949 µM): > 9.02
pIC50 (second compound 0.003 µM): > 9.02
pIC50 (second compound 0.00949 µM): > 9.02
pIC50 (second compound 0.03 µM): > 9.02
pIC50 (second compound 0.0949 µM): > 9.02
pIC50 (second compound 0.3 µM): > 9.02
Compound: CCc1c2c(nc3ccc(O)cc13)-c1cc3c(c(=O)n1C2)COC(=O)[C@]3(O)CC + CCn1c(-c2cccnc2C(C)OC)c2c3cc(ccc31)N1CCOC(CC(NC(=O)C(C(C)C)N(C)C(=O)C3(F)CCN(C(=O)C#CC(C)(C)N(C)C)CC3)C(=O)N3CCCC(N3)C(=O)OCC(C)(C)C2)C1
viability, T/C [1]: 28.2%
viability, T/C [2]: 22.7%
viability, T/C [3]: 26.9%
viability, T/C [4]: 22%
viability, T/C [5]: 19.6%
viability, T/C [6]: 15.6%
viability, T/C [7]: 24.8%
viability, T/C [8]: 15.5%
viability, T/C [9]: 15.5%
viability, T/C [10]: 14.1%
viability, T/C [11]: 15.5%
viability, T/C [12]: 15.1%
viability, T/C [13]: 22.1%
viability, T/C [14]: 17.7%
viability, T/C [15]: 17.7%
viability, T/C [16]: 15%
viability, T/C [17]: 14.6%
viability, T/C [18]: 12.3%
viability, T/C [19]: 19.5%
viability, T/C [20]: 15.7%
viability, T/C [21]: 14.8%
viability, T/C [22]: 13.9%
viability, T/C [23]: 13.2%
viability, T/C [24]: 10.7%
viability, T/C [25]: 15.9%
viability, T/C [26]: 13%
viability, T/C [27]: 11.3%
viability, T/C [28]: 12.3%
viability, T/C [29]: 11.1%
viability, T/C [30]: 9.62%
viability, T/C [31]: 13.9%
viability, T/C [32]: 14.3%
viability, T/C [33]: 11.5%
viability, T/C [34]: 10.7%
viability, T/C [35]: 10.3%
viability, T/C [36]: 7%
